Reference: ChEMBL document CHEMBL2021871, “The effects of diketopiperazines from Callyspongia sp. on release of cytokines and chemokines in cultured J774A.1 macrophages” (2012)
Calls of active or inactive are those of the source. The calls are words filed in the database; no cut-off is given here.

Tests used:
Assay type in all cases: functional
J774.A1 [1] = test: Induction of IFN-gamma secretion in mouse J774A1 cells at 5 ug/mL after 48 hrs by ELISA relative to control
J774.A1 [2] = test: Induction of TNF-alpha secretion in mouse J774A1 cells at 5 ug/mL after 48 hrs by ELISA relative to control
J774.A1 [3] = test: Induction of MCP-1 secretion in mouse J774A1 cells at 5 ug/mL after 48 hrs by ELISA relative to control
J774.A1 [4] = test: Induction of IL10 secretion in mouse J774A1 cells at 5 ug/mL after 48 hrs by ELISA relative to control
J774.A1 [5] = test: Reduction of TNF-alpha secretion in mouse J774A1 cells at 5 ug/mL after 48 hrs by ELISA relative to control; set-up: scale not given: the % may be the effect or the level left

Row | SMILES | fold change (FC) (J774.A1 [1]) | Activity (J774.A1 [2]) | fold change (FC) (J774.A1 [3]) | fold change (FC) (J774.A1 [4]) | Activity (J774.A1 [4]) | Activity (J774.A1 [5]) [%] | fold change (FC) (J774.A1 [2])
1 | O=C1NCC(=O)N2CCC[C@@H]12 [CYCLO(PROLYLGLYCYL)] | 3.5 | inactive | 1.86 | 1.29 | – | – | –
2 | CC(C)C[C@@H]1NC(=O)[C@H](Cc2ccc(O)cc2)NC1=O | 1.82 | inactive | 2.24 | – | inactive | 88.3 | –
3 | C[C@@H]1NC(=O)[C@@H]2C[C@@H](O)CN2C1=O | 4.49 | – | 3.09 | 1.65 | – | – | 1.12
4 | O=C1N[C@@H](Cc2ccccc2)C(=O)N2CCC[C@@H]12 | 1.62 | inactive | 2.05 | 1.54 | – | – | –
5 | C[C@@H]1NC(=O)[C@@H]2CCCN2C1=O | 1.36 | – | 1.47 | 1.56 | – | – | –
